The text below walks through data of patent publication US20090311249A1, “Capecitabine Combination Therapy” (priority 2006, published 2009).

SMILES strings stand for the structures.

Data set [1] in a line: Phase 1b trial: pharmacokinetics of CAPE and its key metabolites in plasma. It counts as in vivo, human. Conditions: AP23573 co-administered with CAPE. An excerpt: Planned pharmacokinetic (PK) and pharmacodynamic (PD) studies included: analysis of plasma, peripheral blood mononuclear cells (PBMC), skin, and tumor samples for effects on mTOR associated pathways*, VEGF* levels and the metabolism of CAPE and fluoropyrimidines (results of studies marked with a “*” are not presented herein).

Data set [2] is described as follows: Phase I and phase 2 single-agent trials of AP23573. It counts as in vivo, human. Conditions: other dosing schedules.
Data set [3] can be described thus: In vitro combination experiments of AP23573 with cytotoxics. In kind it is cell-based. The note with it: with several cytotoxics including 5-fluorouracil (5FU).
For the next data set, the system named is VEGF. Conditions: patients treated with AP23573; cited from earlier work.
In data set [4] the test system is VEGF production in tumor cells. Conditions: in vitro; cited from earlier work.

Regarding `O=c1[nH]cc(F)c(=O)[nH]1` [5FU, 5-fluorouracil], the “pharmacokinetics of 5FU” value in data set [1] is recorded as “not be impacted”.
`CO[C@H]1C[C@@H]2CC[C@@H](C)[C@@](O)(O2)C(=O)C(=O)N2CCCC[C@H]2C(=O)O[C@H]([C@H](C)C[C@@H]2CC[C@@H](OP(C)(C)=O)[C@H](OC)C2)CC(=O)[C@H](C)/C=C(\C)[C@@H](O)[C@@H](OC)C(=O)[C@H](C)C[C@H](C)/C=C/C=C/C=C/1C` [AP23573]: the dose limiting toxicity result in data set [2] is recorded as “oral mucositis”. Moreover, the “combination effect in vitro” value in data set [3] is “at least additive”. Further, the VEGF levels result with VEGF is on record as “reduced VEGF levels”. The “effect on VEGF production” value in data set [4] is recorded as “inhibits VEGF production”.
